In the Kinase Knowledgebase extract (Sharma et al. 2016):

biological target: ROCK2 (human) (UniProt O75116); test: Inhibition of ROCK2 Kinase Activity
Sequence (O75116 whole entry, looked up): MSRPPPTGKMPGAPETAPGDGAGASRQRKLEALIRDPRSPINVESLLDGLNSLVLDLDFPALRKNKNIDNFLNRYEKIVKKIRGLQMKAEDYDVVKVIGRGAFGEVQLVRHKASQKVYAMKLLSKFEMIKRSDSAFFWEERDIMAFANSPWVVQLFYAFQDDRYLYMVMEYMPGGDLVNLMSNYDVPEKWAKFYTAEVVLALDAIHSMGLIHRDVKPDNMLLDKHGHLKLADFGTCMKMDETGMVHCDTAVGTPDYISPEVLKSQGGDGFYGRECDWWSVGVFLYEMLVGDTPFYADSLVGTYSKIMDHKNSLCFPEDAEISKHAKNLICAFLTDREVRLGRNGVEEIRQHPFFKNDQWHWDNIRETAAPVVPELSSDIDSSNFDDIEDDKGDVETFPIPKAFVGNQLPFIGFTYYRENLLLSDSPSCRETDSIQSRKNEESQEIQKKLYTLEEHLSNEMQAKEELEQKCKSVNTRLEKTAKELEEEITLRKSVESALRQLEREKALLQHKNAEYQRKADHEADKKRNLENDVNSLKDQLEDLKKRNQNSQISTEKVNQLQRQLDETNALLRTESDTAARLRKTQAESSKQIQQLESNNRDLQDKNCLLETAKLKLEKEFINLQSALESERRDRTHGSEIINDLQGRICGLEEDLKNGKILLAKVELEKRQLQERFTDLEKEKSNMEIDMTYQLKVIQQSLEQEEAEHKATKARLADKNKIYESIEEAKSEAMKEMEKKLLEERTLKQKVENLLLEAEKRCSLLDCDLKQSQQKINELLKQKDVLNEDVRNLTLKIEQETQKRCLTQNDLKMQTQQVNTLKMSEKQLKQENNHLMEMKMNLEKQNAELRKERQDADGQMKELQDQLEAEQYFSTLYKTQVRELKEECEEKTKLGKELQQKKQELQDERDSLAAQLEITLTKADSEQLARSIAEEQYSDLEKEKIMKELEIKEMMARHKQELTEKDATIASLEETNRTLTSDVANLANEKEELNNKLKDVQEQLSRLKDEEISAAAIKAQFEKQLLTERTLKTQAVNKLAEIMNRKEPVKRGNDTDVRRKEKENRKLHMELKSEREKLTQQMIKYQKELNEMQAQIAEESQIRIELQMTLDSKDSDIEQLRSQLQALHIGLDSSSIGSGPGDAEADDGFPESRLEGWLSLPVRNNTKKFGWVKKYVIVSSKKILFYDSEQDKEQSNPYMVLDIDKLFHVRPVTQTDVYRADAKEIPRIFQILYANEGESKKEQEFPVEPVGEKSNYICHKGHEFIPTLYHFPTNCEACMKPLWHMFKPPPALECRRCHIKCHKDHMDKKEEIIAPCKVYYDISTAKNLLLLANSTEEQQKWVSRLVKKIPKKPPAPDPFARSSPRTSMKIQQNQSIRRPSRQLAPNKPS

Row | Compound | IC50
1 | NC(C(=O)Nc1cc2cc[nH]c(=O)c2cc1Cl)c1cccc(Cl)c1 (stereo not drawn) | < 1 µM
2 | O=C(CNCc1ccccc1)Nc1ccc2c(=O)[nH]cnc2c1 | < 1 µM
3 | O=C(Nc1ccc2c(=O)[nH]ccc2c1)c1cc(Cl)sc1Cl | < 1 µM
4 | CN1CCC(C(=O)Nc2cc3cc[nH]c(=O)c3cc2Br)CC1 | < 1 µM
5 | O=C(Cc1ccc(F)cc1)Nc1cc2cc[nH]c(=O)c2cc1Cl | < 1 µM
6 | O=C(CNC1CCCc2ccccc21)Nc1cc2cc[nH]c(=O)c2cc1Cl (stereo not drawn) | < 1 µM
7 | NC(Cc1ccc(F)cc1)C(=O)Nc1cc2cc[nH]c(=O)c2cc1Cl (stereo not drawn) | < 1 µM
8 | O=C(Nc1ccc2c(=O)[nH]cnc2c1)C1CCCN1 (stereo not drawn) | < 1 µM
9 | O=C(Nc1cc2cc[nH]c(=O)c2cc1Cl)c1ccc2c(c1)CNCC2 | < 1 µM
10 | CS(=O)(=O)CC(=O)Nc1cc2cc[nH]c(=O)c2cc1Cl | < 1 µM
11 | N[C@H]1CCC[C@H](C(=O)Nc2cc3cc[nH]c(=O)c3cc2Cl)C1 | < 1 µM
12 | N[C@@H](C(=O)Nc1ccc2c(=O)[nH]ccc2c1)C1CCCCC1 | < 1 µM
13 | O=C(Nc1cc2cc[nH]c(=O)c2cc1Cl)C1CNCCN1 (stereo not drawn) | < 1 µM
14 | N[C@@H](C(=O)Nc1ccc2c(=O)[nH]ccc2c1)c1ccccc1 | < 1 µM
15 | O=C(O)CC(C(=O)Nc1cc2cc[nH]c(=O)c2cc1Cl)c1ccccc1 (stereo not drawn) | < 1 µM
16 | N[C@H](Cc1ccc(Cl)cc1)C(=O)Nc1cc2cc[nH]c(=O)c2cc1Cl | < 1 µM
17 | O=C(Nc1cc2cc[nH]c(=O)c2cc1Cl)c1ccc(Br)cc1Cl | < 1 µM
18 | COC(C(=O)Nc1cc2cc[nH]c(=O)c2cc1Cl)(c1ccccc1)C(F)(F)F (stereo not drawn) | < 1 µM

More lines, now with the values ahead:

Row | IC50 | Compound
19 | < 1 µM | CC(C)(C)NCC(=O)Nc1cc2cc[nH]c(=O)c2cc1Cl
20 | < 1 µM | O=C(Nc1cc2cc[nH]c(=O)c2cc1Cl)c1c(F)cc(F)cc1F
21 | < 1 µM | O=C(Nc1cc2cc[nH]c(=O)c2cc1Cl)c1ccccc1CN1CCOCC1
22 | < 1 µM | CN1CCC(C(=O)Nc2ccc3c(=O)[nH]ccc3c2)CC1
23 | < 1 µM | CC(NCC1CCCCC1)C(=O)Nc1cc2cc[nH]c(=O)c2cc1Cl (stereo not drawn)
24 | < 1 µM | CC(C)OC(=O)Nc1cc2cc[nH]c(=O)c2cc1Cl
25 | < 1 µM | O=C(Nc1cc2cc[nH]c(=O)c2cc1Cl)c1ccc([N+](=O)[O-])cc1Cl
26 | < 1 µM | Cc1ccc([C@@H](N)C(=O)Nc2cc3cc[nH]c(=O)c3cc2Cl)cc1
27 | < 1 µM | Cc1ccc(C(=O)Nc2cc3cc[nH]c(=O)c3cc2Cl)c(Br)c1
28 | < 1 µM | N[C@@H](CC1CCCCC1)C(=O)Nc1cc2cc[nH]c(=O)c2cc1Cl
29 | < 1 µM | NCCC(=O)Nc1cc2cc[nH]c(=O)c2cc1Cl
30 | < 1 µM | O=C(Nc1cc2cc[nH]c(=O)c2cc1Cl)c1ccccc1Br
31 | < 1 µM | O=C(Nc1ccc2c(=O)[nH]ccc2c1)C1CNCC1c1ccccc1 (stereo not drawn)
32 | < 1 µM | CCOCCCNC(C(=O)Nc1cc2cc[nH]c(=O)c2cc1Cl)c1ccccc1 (stereo not drawn)
33 | < 1 µM | CC[C@@H](C)[C@H](N)C(=O)Nc1cc2cc[nH]c(=O)c2cc1Cl
34 | < 1 µM | O=c1[nH]ccc2cc(NC(=O)[C@H]3CC[C@@H](C(=O)O)CC3)c(Cl)cc12
35 | < 1 µM | O=C(Nc1cc2cc[nH]c(=O)c2cc1Cl)C(=O)c1ccccc1
36 | < 1 µM | O=C(Nc1cc2nc[nH]c(=O)c2cc1Cl)[C@H]1CNC[C@@H]1c1cccc(Br)c1
37 | < 1 µM | O=C(Nc1cc2cc[nH]c(=O)c2cc1Cl)c1ccc(N2CCOCC2)cc1Cl
38 | < 1 µM | CC(=O)O[C@H]1CC[C@@H](C(=O)Nc2cc3cc[nH]c(=O)c3cc2Cl)CC1
